Data on 3 molecules can be found in article PMC3399945 (Journal of the American Chemical Society, 2012).

A short description of series [1]: Amide hydrogen-deuterium exchange. In kind it is physicochemical. The settings on record: for H/D rate constant: D2O/TFE-d3 80/20, 20 °C, NMR, in duplicate; for Stabilization, −ΔG (free energy of protection): from H/D exchange, 20 °C.
The nature of series [2]: Thermal denaturation monitored by CD / Zimm–Bragg model. Particulars: from broad thermal transition, CD in 10% TFE/PBS, Zimm–Bragg simulation. In kind it is physicochemical.
Series [3] deals with N-terminal His6-tagged MDM2 (25–117) (Homo sapiens, UniProt Q00987). Nature of the series: Fluorescence polarization-based competition binding assay with Flu-p53. The settings on record: comparison with previously reported affinity of 1 (ref 38).
Series [4] is classed as physicochemical. Particulars: 10% TFE in PBS, 25 °C, 100 μM peptide, pH 7.4.

Square brackets hold non-standard residues; d marks the D form. Peptide text beside a SMILES is read from it. * marks the point of attachment. X1 = NC(=O)CC[C@@H]1NC(=O)CC/C=C/CN(CCC(=O)*)C(=O)[C@H](CCC(=O)O)NC1=O; β3hL = CC(C)C[C@H](N)CC(=O)O

Turning to `CC(C)C[C@@H](CC(=O)N[C@@H](Cc1c[nH]c2ccccc12)C(=O)N[C@@H](CCCCN)C(=O)N[C@@H](CC(C)C)C(=O)N[C@H](CC(=O)N[C@@H](CO)C(N)=O)CC(C)C)NC(=O)[C@H](CC(=O)O)NC(=O)[C@H](CO)NC(=O)[C@H](Cc1ccccc1)NC(=O)CCN1C/C=C/CCC(=O)N[C@@H](CCC(N)=O)C(=O)N[C@@H](CCC(=O)O)C1=O` [Peptide 2] (X1-FSD[β3hL]WKL[β3hL]S-NH2), the H/D rate constant in series [1] (residue 4 (F^4)) worked out at 0.0003809 h⁻¹; in series [1] (residue 5 (S^5)), 0.0003809 h⁻¹; in series [1] (residue 8 (W^8)), 6.9e-06 h⁻¹; in series [1] (residue 9 (K^9)), 2.8e-06 h⁻¹; in series [1] (residue 12 (S^12)) it was 5.85e-05 h⁻¹. For the same molecule, the “nucleation constant σ” value in series [2] is listed as at least 1.

`CC(C)C[C@@H](CC(=O)N[C@@H](CC(C)C)C(=O)N[C@@H](CO)C(N)=O)NC(=O)[C@H](CCCCN)NC(=O)[C@H](Cc1c[nH]c2ccccc12)NC(=O)[C@H](CC(C)C)NC(=O)C[C@H](CC(=O)O)NC(=O)[C@H](CO)NC(=O)[C@H](Cc1ccccc1)NC(=O)CN1C/C=C/CCC(=O)N[C@@H](CCC(N)=O)C(=O)N[C@@H](CCC(=O)O)CC1=O` [Peptide 3]: the H/D rate constant in series [1] (residue 4 (F^4)) came to 1.33e-05 h⁻¹; in series [1] (residue 5 (S^5)) it was 1.07e-05 h⁻¹; in series [1] (residue 8 (W^8)), 1.4e-06 h⁻¹; in series [1] (residue 9 (K^9)) it was 8e-07 h⁻¹; in series [1] (residue 12 (S^12)), 2.6e-06 h⁻¹. For the same molecule, the “nucleation constant σ” value in series [2] is at least 1. The “affinity for MDM2 compared with HBS α-helix 1 (in words)” value in series [3] is given as “comparable to that previously reported for the optimized HBS p53 α-helix analog 1”.

As to “XQEG*FSDLWKLLS-NH2 (sidechain bridge or staple) [Peptide 1]”, the H/D rate constant in series [1] (residue 4 (F^4)) came to 0.0003808 h⁻¹; in series [1] (residue 5 (S^5)) it was 0.0003808 h⁻¹; in series [1] (residue 8 (W^8)), 1.8e-06 h⁻¹; in series [1] (residue 9 (K^9)), 5.1e-06 h⁻¹; in series [1] (residue 12 (S^12)) it was 7.8e-06 h⁻¹. For the same molecule, the “Stabilization, −ΔG (free energy of protection)” value in series [1] (residue 6 (D^6 in 1 and 2, Dβ^6 in 3)) was -0.58 kcal/mol; in series [1] (residue 7 (L^7 in 1 and 3, Lβ^7 in 2)) it was 0.52 kcal/mol; in series [1] (residue 8 (W^8)) it was 1.22 kcal/mol; in series [1] (residue 9 (K^9)), 1.23 kcal/mol; in series [1] (residue 10 (L^10 in 1 and 2, Lβ^10 in 3)), 1.40 kcal/mol; in series [1] (residue 11 (L^11 in 1 and 3, Lβ^11 in 2)), 1.04 kcal/mol. For the same molecule, the “Stabilization, −ΔG (free energy of protection)” value in series [1] (residue 12 (S^12)) is 1.42 kcal/mol. Moreover, the “CD signature (in words)” value in series [4] was “CD signature typical of a canonical α-helix, with double minima near 206 and 222 nm and a maximum at 190 nm”.
